# Assays:
# DSPP gene = experiment: DSPP mRNA level by real-time PCR in human dental pulp cells; type: cell-based; settings: peptide 10 ug/ml, compared to untreated control
# Description: Human pulp tissue cells were isolated from wisdom teeth of 10 adults (18-22 years old) at Seoul National University Dental Hospital. Specifically, all experiments were performed with the patient's consent after approval from the hospital's Institutional Review Board, and wisdom teeth are cut according to a method of Jung H S et al (J Mol Histol. (2011)), exposing the pulp and isolating the pulp with forceps. The isolated pulp was minced on both sides, placed in a 60 mm dish, covered with a cover slip, and then cultured in Dulbecco's Modified Eagle medium. It is known that human dental pulp cells can differentiate into odontoblasts, osteoblasts, cementoblasts and periodontal ligament cells under various conditions (Tissue Eng Part A. 2014 April; 20(7-8): 1342-51).
# (§1) Total RNA of human dental pulp cells and mesenchymal stem cells was isolated using a TRIzol reagent. cDNA was synthesized using 2 μg of total RNA, 1 μl of reverse transcriptase, and 0.5 μg of oligo (dT). The synthesized cDNA was used for real-time polymerase chain reaction. The real-time polymerase chain reaction was performed in ABI PRISM 7500 sequence detection system (Applied Biosystems) using SYBR GREEN PCR Master Mix (Takara, Japan). The real-time polymerase chain reaction was performed at 94° C., 1 min; 95° C., 15 sec-60° C., 34 sec was performed under the condition of repeating 40 cycles. An analysis of the results was evaluated using a comparative cycle threshold (CT) method, and primer base sequences are listed in Table 9.
# The effect of each group of peptides on DSPP mRNA expression was confirmed by real-time PCR (Table 10).
# BSP gene = experiment: BSP mRNA level by real-time PCR in human-derived mesenchymal stem cells; type: cell-based; settings: compared to untreated control
# Description: (§2) It was cultured at 37° C. in humid air containing 5% CO2 and used for the experiment. Human mesenchymal stem cells (hBMSCs) were purchased from Lonza (LONZA, Switzerland) and used. hBMSCs were cultured in a-MEM (Invitrogen) medium supplemented with 10% heat-inactivated bovine serum.
# as §1
# (§3) BSP and DMP1 genes are used as markers for differentiation of osteoblasts and cementoblasts, and are known as important genes for calcification of a bone and cementum. The effects of each group of peptides on BSP and DMP1 mRNA expression were confirmed by a real-time PCR (Tables 11 and 12).
# DMP1 gene = experiment: DMP1 mRNA level by real-time PCR in human-derived mesenchymal stem cells; type: cell-based; settings: compared to untreated control
# Description: as §2, §1, §3
# DSP = experiment: Western blot of DSP protein in human dental pulp cells; type: cell-based; settings: 1, 10, and 50 ug, FIG. 3
# Description: (§4) FIG. 3 is a result of confirming expressions of DSP and BSP proteins by Western blot after treating human dental pulp cells with the novel peptide (SEQ ID NO: 1) in a concentration-dependent manner (1, 10, and 50 ug) to confirm the effect of novel peptides on expressions of marker proteins for differentiation of odontoblasts, osteoblasts and cementoblasts.
# BSP = experiment: Western blot of BSP protein in human dental pulp cells; type: cell-based; settings: 1, 10, and 50 ug, FIG. 3
# Description: as §4
# [1] = test system: damaged dentin of beagle dog's teeth; experiment: Dentin regeneration in dentin damage model; type: in vivo; settings: 10 ug per tooth, 3 weeks after application, vs control group, FIG. 4
# Description: Three beagle dogs (12-16 kg; […]) were anesthetized by inhalation of Geloran, intravenously injected with Zoletil (5 mg/kg) and Xylazine (0.2-0.5 mg/kg), and then treated with Lidocaine (Lidocaine 2% with 1:80,000 epinephrine). After damaging the dentin of the premolars and molar teeth in the mandible of the beagle dog using a dental bur, 10 ug of SEQ ID NO: 1 peptide of group 1 was treated per tooth. After 6 weeks, a beagle dog was sacrificed by administering an excessive amount (90-120 mg/kg) of pentobarbital. The tooth of the beagle dog was extracted, fixed with 10% formalin, calcium was removed by adding 5% formic acid, molded, and embedded in paraffin, and then a tissue section with a thickness of 5 μm were obtained, a obtained tissue section was stained with hematoxylin and eosin, and then analyzed using by an optical microscope equipped with a digital camera (LEICA ICC50 camera, Germany).
# FIG. 4 is the result of histological evaluation 3 weeks after application of 10 ug of the novel peptide (SEQ ID NO: 1) after damaging the dentine of beagle dog's teeth in order to confirm that the novel peptide induces physiological dentin regeneration in a animal model of damaged dentin.
# [2] = test system: human dental pulp cells (hDPCs) transplanted into the subcutaneous tissue of mice with impaired immune systems; experiment: In vivo transplantation of hDPCs with HA/TCP and histological analysis
# Description: Human dental pulp cells (hDPCs) were isolated and used for in vivo transplantation experiments. hDPCs (2×10^6 cells) were mixed with 100 mg of hydroxy apatite/tricalcium phosphate (HA/TCP) ceramic powder (Zimmer, USA) alone or along with peptides (10 μg) or 0.5% fibrin gel, and then transplanted into mice (NIH-bg-nu-xid; Harlan Laboratories, Indianapolis, IN) with damaged immune systems for 6 and 12 weeks. Thereafter, samples were harvested, fixed in 4% paraformaldehyde, decalcified in 10% EDTA (pH 7.4), embedded in paraffin, and stained with hematoxylin-eosin (H-E) (Vector Labs).
Sequence,"mRNA level of DSPP gene, Average (DSPP gene) [fold]","mRNA level of BSP gene, BSP gene expression, Average (BSP gene) [fold]","mRNA level of DMP1 gene, DMP1 gene expression, Average (DMP1 gene) [fold]",expression of DSP protein (marker for differentiation of odontoblasts) (DSP),expression of BSP protein (marker for differentiation of osteoblasts and cementoblasts) (BSP),"physiological dentin regeneration, histological evaluation [1]","periodontal ligament formation, hematoxylin-eosin histology ([2]; 10 ug peptide with hDPCs, 6 weeks after transplantation, vs hDPCs-only control, FIG. 6)","proportion of hard tissue formation ([2]; 10 ug peptide with hDPCs, 12 weeks after transplantation, vs hDPCs-only control, FIG. 5)","hard tissue (bone/cementum-like tissue) formation, hematoxylin-eosin histology ([2]; hDPCs with HA/TCP, 12 weeks after transplantation, FIG. 5)"
KYKAKKKNYK [SEQ ID NO: 1],9.028,2.892,11.401,increased in a concentration-dependent manner,increased in a concentration-dependent manner,physiological dentin was formed in the lower part the damaged dentine,periodontal ligament fiber bundle (black triangle) were formed,increased,more similar hard tissue formation as the BMP-2 treated group compared to the control group
KYKARRRSYK [SEQ ID NO: 15],3.620,2.119,8.991,–,–,–,–,–,–
KYRAKKKNYK [SEQ ID NO: 17],2.192,2.392,9.400,–,–,–,–,–,–
KYRAKKKSYK [SEQ ID NO: 25],1.919,2.152,9.055,–,–,–,–,–,–
KYRAKKRNYK [SEQ ID NO: 18],2.061,2.316,9.161,–,–,–,–,–,–
KYRAKKRSYK [SEQ ID NO: 26],1.811,2.081,8.991,–,–,–,–,–,–
KYRAKRKNYK [SEQ ID NO: 19],1.772,2.537,8.999,–,–,–,–,–,–
KYRAKRKSYK [SEQ ID NO: 27],1.620,2.195,8.537,–,–,–,–,–,–
KYRAKRRNYK [SEQ ID NO: 21],2.167,1.995,9.100,–,–,–,–,–,–
KYRAKRRSYK [SEQ ID NO: 29],2.125,1.978,9.525,–,–,–,–,–,–
KYRARKKNYK [SEQ ID NO: 20],1.702,2.91,8.537,–,–,–,–,–,–
KYRARKKSYK [SEQ ID NO: 28],2.311,2.084,9.198,–,–,–,–,–,–
KYRARKRNYK [SEQ ID NO: 24],2.021,2.276,9.333,–,–,–,–,–,–
KYRARKRSYK [SEQ ID NO: 32],1.861,1.893,8.107,–,–,–,–,–,–
KYRARRKNYK [SEQ ID NO: 22],2.005,1.893,7.997,–,–,–,–,–,–
KYRARRKSYK [SEQ ID NO: 30],1.836,2.222,8.683,–,–,–,–,–,–
KYRARRRNYK [SEQ ID NO: 23],1.915,2.037,9.105,–,–,–,–,–,–
KYRARRRSYK [SEQ ID NO: 31],1.620,1.798,9.100,–,–,–,–,–,–

# Reference: patent US20240190916A1, “NOVEL PEPTIDE” (HYSENSBIO, priority 2022, published 2024)
